The values below come from patent publication US8937193B2, “Apogossypolone derivatives as anticancer agents” (Sanford-Burnham Medical Research Institute, priority 2009, dated 2015).

The conditions of data set [1]: administered orally (6a); cited from earlier work.
A further data set relates to BP3 cell line. The data set is described as follows: Annexin V-FITC and propidium iodide apoptosis assay, BP3. It is filed as cell-based, human.
A short description of another data set: EC50 values of FIG. 3(B). Particulars: test not named.
Another data set relates to PC3 cell line. The data set is described as follows: ATP-LITE cell viability assay, PC3. It is filed as cell-based. Particulars: Homo sapiens, PC-3, 72 h, 3 days. On the procedure:
(§1) The activity of the compounds against human cancer cell lines (PC3, H460, H1299) were assessed by using the ATP-LITE assay (PerkinElmer). All cells were seeded in either […] or RPMI1640 medium with 5 mM L-glutamine supplemented with 5% fetal bovine serum (Mediatech Inc.), penicillin and streptomycin (Omega). For maintenance, cells were cultured in 5% FBS. Cells plated into 96 well plates at varying initial densities depending on doubling time. H460 and H1299 plated at 2000 cells/well and PC3 at 3000 cells/well. Compounds were diluted to final concentrations with 0.1% DMSO. Prior to dispensing compounds onto cells, fresh 5% media was placed into wells. Administration of compounds occurred 24 hours after seeding into the fresh media. Cell viability was evaluated using ATP-LITE reagent (PerkinElmer) after 72 hours of treatment. Data were normalized to the DMSO control-treated cells using Prism version 5.01 (Graphpad Software).

For a further data set, the system named is H460 cell line. The data set is described as follows: ATP-LITE cell viability assay, H460. Particulars: Homo sapiens, NCI-H460, 72 h, 3 days. It is filed as cell-based. On the procedure: (§2) The activity of the compounds of Formula I against human cancer cell lines (PC3ML, H460, H1299, RS11846) may be assessed by using the ATP-LITE assay (PerkinElmer). All cells are seeded in either F12 or RPMI1640 medium with 5 mM L-glutamine supplemented with 5% fetal bovine serum (Mediatech Inc.), penicillin and streptomycin (Omega). For maintenance, cells are cultured in 5% FBS. Cells plated into 96 well plates at varying initial densities depending on doubling time. H460 and H1299 plated at 2000 cells/well, A549 and PC3 at 3000 cells/well, and […] at 10,000 cells/well. The compounds are diluted to final concentrations with 0.1% DMSO. Prior to dispensing the compounds onto cells, fresh 5% media is placed into the wells. Administration of compounds occurs 24 hours after seeding into the fresh media. Cell viability may be evaluated using ATP-LITE reagent (PerkinElmer) after 72 hours of treatment. Data are normalized to the DMSO control-treated cells using Prism version 5.01 (Graphpad Software).
as §1

Another data set deals with H1299 cell line. As to the kind of experiment: ATP-LITE cell viability assay, H1299. It is filed as cell-based. Particulars: Homo sapiens, NCI-H1299, 72 h, 3 days. The procedure:
as §2, §1

Another data set concerns primary CLL cells. The data set is described as follows: Annexin-V apoptosis assay, primary CLL cells. Type of data set: cell-based, human.
A short description of data set [2]: In vitro plasma stability. Particulars: for Plasma Stability (T = 40 mins): Table 4; for degraded after 1 hour incubation in rat plasma: rat plasma (preparations).
Excerpt: (§3) To test the pharmacological properties of the compounds of Formula I, the in vitro plasma stability, microsomal stability, and cell membrane permeability may be determined.
Data set [3] can be described thus: In vitro microsomal stability. Particulars: Table 4.
Excerpt: as §3
Another data set relates to PPC-1 xenograft tumors. As to the kind of experiment: PPC-1 tumor xenograft study in nude mice.
Another data set concerns RS4;11 cell line. The data set is described as follows: Annexin V-FITC and propidium iodide apoptosis assay, RS4;11. It is filed as cell-based. Particulars: Homo sapiens, RS4-11, 24 h, 1 day.
A further data set deals with Bcl-XL (Homo sapiens (Human), UniProt Q07817). The data set is described as follows: Fluorescence polarization competitive binding assay (FPA), Bcl-XL. Particulars: displacement of BH3 peptide. Background: In fluorescence polarisation assays a small probe gives low polarisation when free and higher when bound to something large.
Sequence of Bcl-XL (Q07817 1-211): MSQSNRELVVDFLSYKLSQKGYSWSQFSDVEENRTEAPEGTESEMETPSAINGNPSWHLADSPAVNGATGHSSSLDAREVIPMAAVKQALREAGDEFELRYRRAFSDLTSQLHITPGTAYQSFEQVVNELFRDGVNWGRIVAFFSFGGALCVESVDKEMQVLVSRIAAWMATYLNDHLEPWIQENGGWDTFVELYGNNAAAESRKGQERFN

Several values for one entry are separate records, joined by “and”; a condition that tells them apart may be missing. Equal entries are not always repeated. Entries after “also recorded” stand apart in the source; their conditions may differ. Some results are limits rather than exact numbers.

Description for BP3 cell line: (§4) The apoptotic activity of the compounds against RS4;11, BP3 and primary CLL cells was assessed by staining with Annexin V-FITC and propidium iodide (PI). Cells were cultured in RPMI 1640 medium (Mediatech Inc., Herndon, Va. 20171) containing 10% fetal bovine serum (Mediatech Inc., Herndon, Va. 20171) and Penicillin/Streptomycin (Mediatech Inc., Herndon, Va. 20171). […] The percentage of viable cells was determined by FITC-Annexin V- and propidium iodide (PI)-labeling, using an Apoptosis Detection kit (BioVision Inc.), and analyzing stained cells by flow cytometry (FACSort; Bectin-Dickinson, Inc.; Mountain View, Calif.). Cells that were annexin-V-negative and PI-negative were considered viable.
Description for Bcl-XL: For competitive binding assays, 100 nM GST-BCL-XL ΔTM protein was preincubated with the tested compound at varying concentrations in 47.5 μL PBS (pH=7.4) in 96-well black plates at room temperature for 10 min, then 2.5 μL of 100 nM FITC-labeled Bak BH3 peptide was added to produce a final volume of 50 μL. The wild-type and mutant Bak BH3 peptides were included in each assay plate as positive and negative controls, respectively. After 30 min incubation at room temperature, the polarization values in millipolarization units were measured at excitation/emission wavelengths of 480/535 nm with a multilabel plate reader (PerkinElmer). IC50 was determined by fitting the experimental data to a sigmoidal dose-response nonlinear regression model (SigmaPlot 10.0.1, Systat Software, Inc., San Jose, Calif., USA). Data reported are mean of three independent experiments±standard error (SE). […] Fluorescence polarization was measured after 10 min.
Description for PPC-1 xenograft tumors: Female 6-week-old nude mice were purchased from Charles River Laboratories. 5×10^6 PCC-1 cells suspended in 0.2 ml PBS were injected subcutaneously into a flank region of each nude mouse. Tumor bearing mice were size matched (200 mm^3) into treatment and control group, ear tagged, and monitored individually. Tumor volume was measured two to three times weekly by digital calipers (volume=length×width^2/2). All studies use 6 mice per group. […] Control mice received saline. The injections were given three times in first week, twice in second week and once in third week and a total of six injections were administered during the experiment. When all tumors of the control group exceed 2000 mm^3 in volume, the animal experiment was terminated. Tumor growth inhibition ratios (T/C %) were calculated by dividing the average tumor volume in the treatment group by the average tumor volume in the control group.
Description for RS4;11 cell line: as §4
Description for primary CLL cells: as §4

Take `Cc1cc2c(C(C)C)c(O)c(O)c(C=O)c2c(O)c1-c1c(C)cc2c(C(C)C)c(O)c(O)c(C=O)c2c1O` [(−) 1]: the “maximum tolerated dose (MTD)” value in data set [1] is recorded as 50 mg/kg.

In the case of `CN(C)CC[C@H](CSc1ccccc1)Nc1ccc(S(=O)(=O)NC(=O)c2ccc(N3CCN(Cc4ccccc4-c4ccc(Cl)cc4)CC3)cc2)cc1[N+](=O)[O-]` [ABT-737, reference compound], the “cell (cytotoxic) activity against BP3 cell lines” value with BP3 cell line (result in words) is on record as “no cell activity; also recorded: no cytotoxic activity”.

As to `Cc1cc2c(C(=O)Cc3ccccc3)c(O)c(O)cc2c(O)c1-c1c(C)cc2c(C(=O)Cc3ccccc3)c(O)c(O)cc2c1O` [BI79D10], in “EC50 values of FIG. 3(B)”, the response was half-maximal at 360 nM (EC50).

Turning to `CC1=C(C2=C(C)C(=O)c3c(cc(O)c(O)c3CC3CCCC3)C2=O)C(=O)c2cc(O)c(O)c(CC3CCCC3)c2C1=O` [Compound 6c, 5,5′-bis(cyclopentylmethyl)-6,6′,7,7′-tetrahydroxy-3,3′-dimethyl-2,2′-binaphthyl-1,1′,4,4′-tetraone], the EC50 (in general, the concentration giving half of the maximal effect) with PC3 cell line came out at 5500 ± 740 nM; in the data set with H460 cell line it was 700 ± 340 nM; in the data set on H1299 cell line, 2320 ± 510 nM. Further, the “LD50 primary CLL samples” value with primary CLL cells (comparison of 6c with 6a) came out at 6.5 µM.

`CC1=C(C2=C(C)C(=O)c3c(cc(O)c(O)c3CCC3CCCCC3)C2=O)C(=O)c2cc(O)c(O)c(CCC3CCCCC3)c2C1=O` [Compound 6d, 5,5′-bis(2-cyclohexylethyl)-6,6′,7,7′-tetrahydroxy-3,3′-dimethyl-2,2′-binaphthyl-1,1′,4,4′-tetraone]: the EC50 is 2400 ± 240 nM in the data set on PC3 cell line, 2200 ± 760 nM in the data set on H460 cell line and 1320 ± 300 nM with H1299 cell line. In addition, the “Plasma Stability (T = 40 mins)” value in data set [2] was found to be 74%. In data set [3], the “Microsomal Stability (T = 40 mins)” value turned out to be 98%.

`CC1=C(C2=C(C)C(=O)c3c(cc(O)c(O)c3CCc3ccc(C)cc3)C2=O)C(=O)c2cc(O)c(O)c(CCc3ccc(C)cc3)c2C1=O` [Compound 6f, 6,6′,7,7′-tetrahydroxy-3,3′-dimethyl-5,5′-bis(4-methylphenethyl)-2,2′-binaphthyl-1,1′,4,4′-tetraone]: the “LD50 primary CLL samples” value with primary CLL cells (six CLL samples from six different patients) is 1.0 to 16.9 µM. Besides, in the data set on primary CLL cells (two primary CLL samples, one day Annexin-V apoptosis assay), the “LD50 primary CLL samples” value is 10 µM and 15 µM. Moreover, in data set [2], the “degraded after 1 hour incubation in rat plasma” value came to 14% and the “Plasma Stability (T = 40 mins)” value worked out at 86%. Also, in the data set on PPC-1 xenograft tumors (50 mg/kg i.p.), the “average body weight losses during the treatment” value is on record as 6.8% and the signs of toxicity result is given as “no observable signs of toxicity”. For the same compound, the “weight loss in first week” value in the data set on PPC-1 xenograft tumors (50 mg/kg i.p. three times in first week) is recorded as approximately 5%.

Turning to `CC1=C(C2=C(C)C(=O)c3c(cc(O)c(O)c3CCCc3ccccc3)C2=O)C(=O)c2cc(O)c(O)c(CCCc3ccccc3)c2C1=O` [Compound 6g, 6,6′,7,7′-tetrahydroxy-3,3′-dimethyl-5,5′-bis(3-phenylpropyl)-2,2′-binaphthyl-1,1′,4,4′-tetraone], the EC50 is 1300 ± 180 nM in the data set with PC3 cell line, 920 ± 90 nM in the data set with H460 cell line, 1530 ± 410 nM in the data set on H1299 cell line and 3830 ± 700 nM in the data set on RS4;11 cell line. Also, in data set [2], the “Plasma Stability (T = 40 mins)” value was 87%. Also, the “Microsomal Stability (T = 40 mins)” value in data set [3] is 88%.

In the case of `CC1=C(C2=C(C)C(=O)c3c(cc(O)c(O)c3CCC(C)(C)c3ccccc3)C2=O)C(=O)c2cc(O)c(O)c(CCC(C)(C)c3ccccc3)c2C1=O` [Compound 6h, 6,6′,7,7′-tetrahydroxy-3,3′-dimethyl-5,5′-bis(3-methyl-3-phenylbutyl)-2,2′-binaphthyl-1,1′,4,4′-tetraone], the EC50 stood at 2000 ± 170 nM in the data set on PC3 cell line, 1620 ± 160 nM with H460 cell line and 2160 ± 270 nM in the data set with H1299 cell line.

With `CC1=C(C2=C(C)C(=O)c3c(cc(O)c(O)c3Cc3ccccc3)C2=O)C(=O)c2cc(O)c(O)c(Cc3ccccc3)c2C1=O` [Compound 6i, 5,5′-dibenzyl-6,6′,7,7′-tetrahydroxy-3,3′-dimethyl-2,2′-binaphthyl-1,1′,4,4′-tetraone], on Bcl-XL, the 50% inhibitory concentration (IC50) (as a rule, the point on the concentration scale where inhibition reaches its midpoint) was in the range of 160 to 630 nM. Besides, in data set [2], the “degraded after 1 hour incubation in rat plasma” value amounted to 5% and the “Plasma Stability (T = 40 mins)” value is on record as 95%.

`CC1=C(C2=C(C)C(=O)c3c(cc(O)c(O)c3CCc3ccc(OC(F)(F)F)cc3)C2=O)C(=O)c2cc(O)c(O)c(CCc3ccc(OC(F)(F)F)cc3)c2C1=O` [Compound 6j, 6,6′,7,7′-tetrahydroxy-3,3′-dimethyl-5,5′-bis(4-(trifluoromethoxy)phenethyl)-2,2′-binaphthyl-1,1′,4,4′-tetraone]: the values for the concentration giving a half-maximal response (EC50) in the data set on PC3 cell line, with H460 cell line and in the data set on H1299 cell line were 8990 ± 2490 nM, 1440 ± 200 nM and 2380 ± 210 nM, respectively.

`CC1=C(C2=C(C)C(=O)c3c(cc(O)c(O)c3CCCc3ccc(F)cc3)C2=O)C(=O)c2cc(O)c(O)c(CCCc3ccc(F)cc3)c2C1=O` [Compound 6k, 5,5′-bis(3-(4-fluorophenyl)propyl)-6,6′,7,7′-tetrahydroxy-3,3′-dimethyl-2,2′-binaphthyl-1,1′,4,4′-tetraone]: the concentration for a half-maximal effect (EC50) is 2620 ± 310 nM in the data set on PC3 cell line, 1480 ± 20 nM with H460 cell line and 1910 ± 170 nM with H1299 cell line.

Consider `CC1=C(C2=C(C)C(=O)c3c(cc(O)c(O)c3Cc3ccc(Cl)cc3)C2=O)C(=O)c2cc(O)c(O)c(Cc3ccc(Cl)cc3)c2C1=O` [Compound 6l, 5,5′-bis(4-chlorobenzyl)-6,6′,7,7′-tetrahydroxy-3,3′-dimethyl-2,2′-binaphthyl-1,1′,4,4′-tetraone], for which the IC50 on Bcl-XL is 160 to 630 nM.

For the compound `CC1=C(C2=C(C)C(=O)c3c(cc(O)c(O)c3Cc3ccc(-c4ccccc4)cc3)C2=O)C(=O)c2cc(O)c(O)c(Cc3ccc(-c4ccccc4)cc3)c2C1=O` [Compound 6m, 5,5′-bis(biphenyl-4-ylmethyl)-6,6′,7,7′-tetrahydroxy-3,3′-dimethyl-2,2′-binaphthyl-1,1′,4,4′-tetraone], the concentration giving a half-maximal response (EC50) with PC3 cell line came to 2970 ± 980 nM; with H460 cell line it was 980 ± 150 nM; in the data set on H1299 cell line, 10300 ± 3840 nM.

As for `CC1=C(C2=C(C)C(=O)c3c(cc(O)c(O)c3C(=O)Cc3ccccc3)C2=O)C(=O)c2cc(O)c(O)c(C(=O)Cc3ccccc3)c2C1=O` [Compound 7, 6,6′,7,7′-Tetrahydroxy-3,3′-dimethyl-5,5′-bis(2-phenylacetyl)-2,2′-binaphthyl-1,1′,4,4′-tetraone], the EC50 with PC3 cell line was 5440 ± 240 nM; in the data set with H460 cell line it was 7380 ± 1070 nM; in the data set on H1299 cell line, more than 30000 nM; in the data set with BP3 cell line (Homo sapiens, BP3, 24 h, Annexin V-FITC and propidium iodide assay, 1 day) it was 9580 ± 4160 nM. The compound further displayed a half-inhibitory concentration (IC50) on Bcl-XL of 160 to 630 nM.

`CC1=C(C2=C(C)C(=O)c3c(cc(O)c(O)c3C(=O)NCC(C)c3ccccc3)C2=O)C(=O)c2cc(O)c(O)c(C(=O)NCC(C)c3ccccc3)c2C1=O` (stereo not shown) [Compound 8a, 6,6′,7,7′-Tetrahydroxy-3,3′-dimethyl-1,1′,4,4′-tetraoxo-N^5,N^5′-bis(2-phenylpropyl)-1,1′,4,4′-tetrahydro-2,2′-binaphthyl-5,5′-dicarboxamide] gave an EC50 in the data set with H1299 cell line of more than 30000 nM. Also, the 50% inhibitory concentration (IC50) on Bcl-XL lay in the range of 160 to 630 nM. Moreover, the “Plasma Stability (T = 40 mins)” value in [2] was 91%. Moreover, in data set [3], the “Microsomal Stability (T = 40 mins)” value amounted to 71%.

As for `CC1=C(C2=C(C)C(=O)c3c(cc(O)c(O)c3C(=O)NCc3cccc(C)c3)C2=O)C(=O)c2cc(O)c(O)c(C(=O)NCc3cccc(C)c3)c2C1=O` [Compound 8b, 6,6′,7,7′-tetrahydroxy-3,3′-dimethyl-N^5,N^5′-bis(3-methylbenzyl)-1,1′,4,4′-tetraoxo-1,1′,4,4′-tetrahydro-2,2′-binaphthyl-5,5′-dicarboxamide], the concentration giving a half-maximal response (EC50) was 5440 ± 340 nM with PC3 cell line, 6160 ± 1480 nM in the data set on H460 cell line and more than 30000 nM in the data set with H1299 cell line.

Consider `CCc1ccc(CCNC(=O)c2c(O)c(O)cc3c2C(=O)C(C)=C(C2=C(C)C(=O)c4c(cc(O)c(O)c4C(=O)NCCc4ccc(CC)cc4)C2=O)C3=O)cc1` [Compound 8c, N^5,N^5′-Bis(4-ethylphenethyl)-6,6′,7,7′-tetrahydroxy-3,3′-dimethyl-1,1′,4,4′-tetraoxo-1,1′,4,4′-tetrahydro-2,2′-binaphthyl-5,5′-dicarboxamide], for which, on Bcl-XL, the IC50 lay within 160 to 630 nM.

On to `Cc1cc2c(C(C)C)c(O)c(O)c(C=O)c2c(O)c1-c1c(C)cc2c(C(C)C)c(O)c(O)c(C=O)c2c1O` [Gossypol, 1,1′,6,6′,7,7′-Hexahydroxy-5,5′-diisopropyl-3,3′-dimethyl-2,2′-binaphthyl-8,8′-dicarboxaldehyde], for which the “mortality in first week” value with PPC-1 xenograft tumors (25 mg/kg, i.p.) is “died”.
